Results reported in patent US10681909B2, “Herbicidal triazoles” (FMC Corporation, priority 2014, dated 2020).

Assays:
[1] = test system: pigweed, palmer; assay: Test E postemergence; format: in vivo, Amaranthus palmeri; conditions: scale 0 to 100
Source text: (§1) Seeds of plant species selected from corn (Zea mays), soybean (Glycine max), lambsquarters (Chenopodium album), poinsettia, wild (wild poinsettia, Euphorbia heterophylla), pigweed, palmer (palmer pigweed, Amaranthus palmeri), waterhemp (common waterhemp, Amaranthus rudis), surinam grass (Brachiaria decumbens), crabgrass, large (large crabgrass, Digitaria sanguinalis), crabgrass, Brazilian (Brazilian crabgrass, Digitaria horizontalis), panicum, fall (fall panicum, Panicum dichotomiflorum), foxtail, giant (giant foxtail, Setaria faberii), foxtail, green (green foxtail, Setaria viridis), goosegrass (Eleusine indica), johnsongrass (Sorghum halepense), ragweed (common ragweed, Ambrosia elatior), barnyardgrass (Echinochloa crus-galli), sandbur (southern sandbur, Cenchrus echinatus), arrowleaf sida (Sida rhombifolia), ryegrass, Italian (Italian ryegrass, Lolium multiflorum), dayflower, VA (Virginia dayflower, Commelina virginica), field bindweed (Convolvulus arvensis), cocklebur (common cocklebur, Xanthium strumarium), morningglory (Ipomoea coccinea), nightshade (eastern black nightshade, Solanum ptycanthum), kochia (Kochia scoparia), nutsedge, yellow (yellow nutsedge, Cyperus esculentus), smartweed (ladysthumb smartweed, Polygonum persicaria), velvetleaf (Abutilon theophrasti), horseweed (Conyza canadensis), and beggarticks (hairy beggarticks, Bidens pilosa), were planted into a silt loam soil and treated preemergence with test chemicals formulated in a non-phytotoxic solvent mixture which included a surfactant.
(§2) At the same time, plants from these crop and weed species and also waterhemp_RES1, (ALS & Triazine resistant common waterhemp, Amaranthus rudis), and waterhemp_RES2, (ALS & HPPD resistant common waterhemp, Amaranthus rudis) were planted in pots containing Sunshine Redi-Earth® planting medium comprising spaghnum peat moss, vermiculite, starter nutrients and dolomitic limestone were treated with postemergence applications of test chemicals formulated in the same manner. Plants ranged in height from 2 to 18 cm for postemergence treatments (1- to 4-leaf stage). Treated plants and controls were maintained in a greenhouse for 14 to 21 d, after which time all species were compared to controls and visually evaluated. Plant response ratings, summarized in Table E, are based on a scale of 0 to 100 where 0 is no effect and 100 is complete control. A dash (-) response means no test result.

[2] = test system: pigweed, palmer; assay: Test E preemergence; format: in vivo, Amaranthus palmeri; conditions: scale 0 to 100
Source text: as §1, §2

[3] = test system: morningglory; assay: Test E preemergence; format: in vivo, Ipomoea coccinea; conditions: scale 0 to 100
Source text: as §1, §2

[4] = test system: soybean; assay: Test E postemergence; format: in vivo, Glycine max; conditions: scale 0 to 100
Source text: as §1, §2

[5] = test system: arrowleaf sida; assay: Test E preemergence; format: in vivo, Sida rhombifolia; conditions: scale 0 to 100
Source text: as §1, §2

[6] = test system: ragweed; assay: Test E preemergence; format: in vivo, Ambrosia elatior; conditions: scale 0 to 100
Source text: as §1, §2

[7] = test system: crabgrass, Brazilian; assay: Test E preemergence; format: in vivo, Digitaria horizontalis; conditions: Brazil, scale 0 to 100
Source text: as §1, §2

[8] = test system: corn; assay: Test E postemergence; format: in vivo, Zea mays; conditions: scale 0 to 100
Source text: as §1, §2

[9] = test system: ryegrass, Italian; assay: Test E preemergence; format: in vivo, Lolium multiflorum; conditions: scale 0 to 100
Source text: as §1, §2

[10] = test system: goosegrass; assay: Test E preemergence; format: in vivo, Eleusine indica; conditions: scale 0 to 100
Source text: as §1, §2

[11] = test system: waterhemp; assay: Test E preemergence; format: in vivo, Amaranthus rudis; conditions: scale 0 to 100
Source text: as §1, §2

[12] = test system: panicum, fall; assay: Test E postemergence; format: in vivo, Panicum dichotomiflorum; conditions: scale 0 to 100
Source text: as §1, §2

[13] = test system: crabgrass, Brazilian; assay: Test E postemergence; format: in vivo, Digitaria horizontalis; conditions: Brazil, scale 0 to 100
Source text: as §1, §2

[14] = test system: soybean; assay: Test E preemergence; format: in vivo, Glycine max; conditions: scale 0 to 100
Source text: as §1, §2

[15] = test system: dayflower, VA; assay: Test E postemergence; format: in vivo, Commelina virginica; conditions: scale 0 to 100
Source text: as §1, §2

[16] = test system: nightshade; assay: Test E preemergence; format: in vivo, Solanum ptycanthum; conditions: scale 0 to 100
Source text: as §1, §2

[17] = test system: surinam grass; assay: Test E preemergence; format: in vivo, Brachiaria decumbens; conditions: scale 0 to 100
Source text: as §1, §2

[18] = test system: barnyardgrass; assay: Test E preemergence; format: in vivo, Echinochloa crus-galli; conditions: scale 0 to 100
Source text: as §1, §2

[19] = test system: foxtail, giant; assay: Test E preemergence; format: in vivo, Setaria faberii; conditions: scale 0 to 100
Source text: as §1, §2

[20] = test system: barnyardgrass; assay: Test E postemergence; format: in vivo, Echinochloa crus-galli; conditions: scale 0 to 100
Source text: as §1, §2

CCOc1nc(-c2ccccc2)nn1Cc1ccnc(C(F)(F)F)c1 [Compound 27]
Plant response rating ([1]; 16 g ai/ha): 98 | Plant response rating ([1]; 31 g ai/ha): 98 | Plant response rating ([1]; 62 g ai/ha): 100 | Plant response rating ([1]; 125 g ai/ha): 98 | Plant response rating ([2]; 16 g ai/ha): 85 | Plant response rating ([2]; 31 g ai/ha): 100 | Plant response rating ([2]; 62 g ai/ha): 100 | Plant response rating ([2]; 125 g ai/ha): 100 | Plant response rating ([3]; 16 g ai/ha): 15 | Plant response rating ([3]; 31 g ai/ha): 25 | Plant response rating ([3]; 62 g ai/ha): 35 | Plant response rating ([3]; 125 g ai/ha): 35 | Plant response rating ([4]; 16 g ai/ha): 70 | Plant response rating ([4]; 31 g ai/ha): 80 | Plant response rating ([4]; 62 g ai/ha): 80 | Plant response rating ([4]; 125 g ai/ha): 95 | Plant response rating ([5]; 16 g ai/ha): 20 | Plant response rating ([5]; 31 g ai/ha): 20 | Plant response rating ([5]; 62 g ai/ha): 75 | Plant response rating ([5]; 125 g ai/ha): 90 | Plant response rating ([6]; 16 g ai/ha): 50 | Plant response rating ([6]; 31 g ai/ha): 35 | Plant response rating ([6]; 62 g ai/ha): 90 | Plant response rating ([6]; 125 g ai/ha): 80 | Plant response rating ([7]; 16 g ai/ha): 90 | Plant response rating ([7]; 31 g ai/ha): 100 | Plant response rating ([7]; 62 g ai/ha): 100 | Plant response rating ([7]; 125 g ai/ha): 100 | Plant response rating ([8]; 16 g ai/ha): 10 | Plant response rating ([8]; 31 g ai/ha): 15 | Plant response rating ([8]; 62 g ai/ha): 20 | Plant response rating ([8]; 125 g ai/ha): 25 | Plant response rating ([9]; 16 g ai/ha): 0 | Plant response rating ([9]; 31 g ai/ha): 20 | Plant response rating ([9]; 62 g ai/ha): 60 | Plant response rating ([9]; 125 g ai/ha): 95 | Plant response rating ([10]; 16 g ai/ha): 80 | Plant response rating ([10]; 31 g ai/ha): 98 | Plant response rating ([10]; 62 g ai/ha): 95 | Plant response rating ([10]; 125 g ai/ha): 100 | Plant response rating ([11]; 16 g ai/ha): 100 | Plant response rating ([11]; 31 g ai/ha): 100 | Plant response rating ([11]; 62 g ai/ha): 100 | Plant response rating ([11]; 125 g ai/ha): 100 | Plant response rating ([12]; 16 g ai/ha): 10 | Plant response rating ([12]; 31 g ai/ha): 10 | Plant response rating ([12]; 62 g ai/ha): 15 | Plant response rating ([12]; 125 g ai/ha): 30 | Plant response rating ([13]; 16 g ai/ha): 20 | Plant response rating ([13]; 31 g ai/ha): 20 | Plant response rating ([13]; 62 g ai/ha): 30 | Plant response rating ([13]; 125 g ai/ha): 40 | Plant response rating ([14]; 16 g ai/ha): 0 | Plant response rating ([14]; 31 g ai/ha): 0 | Plant response rating ([14]; 62 g ai/ha): 0 | Plant response rating ([14]; 125 g ai/ha): 15 | Plant response rating ([15]; 16 g ai/ha): 50 | Plant response rating ([15]; 31 g ai/ha): 60 | Plant response rating ([15]; 62 g ai/ha): 70 | Plant response rating ([15]; 125 g ai/ha): 75 | Plant response rating ([16]; 16 g ai/ha): 0 | Plant response rating ([16]; 31 g ai/ha): 50 | Plant response rating ([16]; 62 g ai/ha): 98 | Plant response rating ([16]; 125 g ai/ha): 100 | Plant response rating ([17]; 16 g ai/ha): 0 | Plant response rating ([17]; 31 g ai/ha): 0 | Plant response rating ([17]; 62 g ai/ha): 10 | Plant response rating ([17]; 125 g ai/ha): 15 | Plant response rating ([18]; 16 g ai/ha): 10 | Plant response rating ([18]; 31 g ai/ha): 25 | Plant response rating ([18]; 62 g ai/ha): 90 | Plant response rating ([18]; 125 g ai/ha): 95 | Plant response rating ([19]; 16 g ai/ha): 75 | Plant response rating ([19]; 31 g ai/ha): 95 | Plant response rating ([19]; 62 g ai/ha): 100 | Plant response rating ([19]; 125 g ai/ha): 100 | Plant response rating ([20]; 16 g ai/ha): 15 | Plant response rating ([20]; 31 g ai/ha): 20 | Plant response rating ([20]; 62 g ai/ha): 30 | Plant response rating ([20]; 125 g ai/ha): 50
